Source: article PMC10035904, “Synthesis of novel sulphamethoxazole derivatives and exploration of their anticancer and antimicrobial properties” (PLOS ONE, 2023)
Read-outs that look alike come from different tables or passages of the source.

Tests used:
[1] = test system: human prostate carcinoma cell line PPC-1; assay: MTT cell viability assay, PPC-1; assay type: cell-based; settings: 72 hours of incubation, n = 3, read-out: EC50 against PPC-1
Procedure: (§1) The human clear cell renal cell carcinoma line (CaKi-1) was obtained from American Type Culture Collection (ATCC, Manassas, VA). The human prostate carcinoma cell line PPC-1 was originally obtained from ATCC and kindly provided by Prof. Tambet Teesalu (University of Tartu, Estonia). Human foreskin fibroblasts (HF) CRL-4001 were originally obtained from ATCC and kindly provided by Prof. Helder Santos (University of Helsinki, Finland). Cells were cultured in Dulbecco’s Modified Eagle’s GlutaMAX medium (Gibco (Carlsbad, CA, USA) supplemented with 10,000 U/mL penicillin, 10 mg/mL streptomycin (Gibco), and 10% fetal bovine serum (Gibco). During cell passaging, Tryple Express reagent (Gibco) was used for cell detachment. Cell cultures were grown at 37°C in a humidified atmosphere containing 5% CO2. They were used until the passage of 20.
(§2) The effect of synthesized compounds on cell viability was studied using 3-(4,5-dimethylthiazol-2-yl)-2,5-diphenyltetrazolium bromide (MTT; Sigma-Aldrich Co., St Louis, MO, USA) assay, as described elsewhere. […] The absorbance was measured at 570 and 630 nm using a multi-detection microplate reader. The compound effect on cell viability was calculated using a formula (1): Relativecellviability%=A−A0/ANC−A0 (1) Where: […]

[2] = test system: human clear cell renal cell carcinoma line (CaKi-1); assay: MTT cell viability assay, CaKi-1; assay type: cell-based; settings: 72 hours of incubation, n = 3, read-out: EC50 against CaKi-1
Procedure: as §1, §2

[3] = test system: Human foreskin fibroblasts (HF) CRL-4001; assay: MTT cell viability assay, fibroblasts HF; assay type: cell-based; settings: Fibroblast, 72 hours of incubation, n = 3, read-out: EC50 against HF
Procedure: as §1, §2

[4] = test system: HF, PPC-1, and CaKi-1 cells; assay: MTT cell viability screen at 100 μM (cell line not given); assay type: cell-based, human; settings: 72 h, cell line not stated
Procedure: The effect of synthesized compounds on cell viability was studied using 3-(4,5-dimethylthiazol-2-yl)-2,5-diphenyltetrazolium bromide (MTT; Sigma-Aldrich Co., St Louis, MO, USA) assay, as described elsewhere. Briefly, HF, PPC-1, and CaKi-1 cells were seeded in 96-well plates (Corning) in triplicates at a volume of 100 μL at a concentration of 4 × 10^3 cells/well. After 24 h of incubation, the cells were treated with 100 μM of tested compounds. After 72 h, the MTT reagent (at 0.5 mg/mL concentration) has been added to the wells, and cells were incubated for 4 h. Then the medium was aspirated, and the formed purple crystals were dissolved in 100 μL DMSO (Sigma-Aldrich Co.). The absorbance was measured at 570 and 630 nm using a multi-detection microplate reader. The compound effect on cell viability was calculated using a formula (1): Relativecellviability%=A−A0/ANC−A0 (1) Where: […]

CaKi-1 cells = settings: cited from earlier work

Structure (SMILES) | reduced cell viability up to about [4] | melting point [°C] | also measured
Cc1cc(NS(=O)(=O)c2ccc(NCCC(=O)NN=Cc3cccc4ccccc34)cc2)no1 [Compound 15k, N-(5-methylisoxazol-3-yl)-4-((3-(2-(naphthalen-1-ylmethylene)hydrazineyl)-3-oxopropyl)amino)-benzenesulfonamide] | about 40% | 206 to 207 | EC50 [1]: > 100 µM; EC50 [2]: > 100 µM; EC50 [3]: > 100 µM
Cc1cc(NS(=O)(=O)c2ccc(NCCC(=O)NN=Cc3ccc([N+](=O)[O-])s3)cc2)no1 [Compound 16d, N-(5-methylisoxazol-3-yl)-4-((3-(2-((5-nitrothiophen-2-yl)methylene)hydrazineyl)-3-oxopropyl)amino)-benzenesulfonamide] | about 40% | 195 to 196 | 
Cc1cc(NS(=O)(=O)c2ccc(NCCC(=O)NN=Cc3ccccc3Cl)cc2)no1 [Compound 15e, 4-((3-(2-(2-Chlorobenzylidene)hydrazineyl)-3-oxopropyl)amino)-N-(5-methylisoxazol-3-yl)benzene-sulfonamide] | about 40% | 202 to 203 | 
CCN(CC)CCNC(=O)c1c(C)[nH]c(/C=C2\C(=O)Nc3ccc(F)cc32)c1C [sunitinib] |  |  | EC50 (CaKi-1 cells; read-out: EC50 against CaKi-1 cells): 2.2 µM
Cc1ccc(Nc2nccc(N(C)c3ccc4c(C)n(C)nc4c3)n2)cc1S(N)(=O)=O [pazopanib] |  |  | EC50 (CaKi-1 cells; after 72 hours of incubation, read-out: EC50 (renal cancer drugs, compared with CaKi-1 data)): 30 µM
